Values of other authors as cited in patent publication US20210356455A1, “SCREENING AGENTS CAPABLE OF INHIBITING PAIN AND/OR PRURITUS AND METHODS AND COMPOSITIONS FOR TREATING PAIN AND/OR PRURITUS USING SAID AGENTS” (President and Fellows of Harvard College, priority 2020, published 2021).
Each block holds one molecule with its values, some of them ahead of it.

Columns and labels:
[1] = molecular target: T1, Mrgprd (MAS Related GPR Family Member D) (Homo sapiens, UniProt Q8TDS7); conditions: micromolar doses; cells expressing the receptor
T1 sequence (Q8TDS7 whole entry, species assumed): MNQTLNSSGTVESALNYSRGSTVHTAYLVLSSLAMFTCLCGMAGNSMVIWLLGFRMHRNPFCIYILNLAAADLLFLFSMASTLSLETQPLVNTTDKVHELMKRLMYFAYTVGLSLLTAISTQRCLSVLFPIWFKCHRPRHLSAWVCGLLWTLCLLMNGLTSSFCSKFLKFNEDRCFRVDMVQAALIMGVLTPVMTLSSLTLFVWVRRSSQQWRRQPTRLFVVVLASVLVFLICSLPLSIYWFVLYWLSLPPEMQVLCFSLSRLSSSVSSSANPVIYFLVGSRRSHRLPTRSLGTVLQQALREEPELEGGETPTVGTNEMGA

[2] = molecular target: T1, Mrgprd (MAS Related GPR Family Member D); conditions: cells expressing the receptor
[3] = molecular target: T2, Mrgpra3 (Mas-related G-protein coupled receptor member A3) (Mus musculus, UniProt Q91WW3)
T2 sequence (Q91WW3 1-302): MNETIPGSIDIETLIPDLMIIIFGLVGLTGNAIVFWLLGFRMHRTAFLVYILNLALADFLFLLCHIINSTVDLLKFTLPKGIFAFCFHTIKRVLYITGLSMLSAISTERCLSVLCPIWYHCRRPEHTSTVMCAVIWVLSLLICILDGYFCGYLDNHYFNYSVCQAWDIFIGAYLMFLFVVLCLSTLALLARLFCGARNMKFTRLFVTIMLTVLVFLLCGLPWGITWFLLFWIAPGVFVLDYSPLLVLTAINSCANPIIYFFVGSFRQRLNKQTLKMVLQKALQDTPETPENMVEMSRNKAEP

[4] = molecular target: Ntsr2 (Neurotensin Receptor 2) (Homo sapiens, UniProt O95665); conditions: binding and pharmacological studies
Ntsr2 (Neurotensin Receptor 2), sequence (O95665 whole entry, species assumed): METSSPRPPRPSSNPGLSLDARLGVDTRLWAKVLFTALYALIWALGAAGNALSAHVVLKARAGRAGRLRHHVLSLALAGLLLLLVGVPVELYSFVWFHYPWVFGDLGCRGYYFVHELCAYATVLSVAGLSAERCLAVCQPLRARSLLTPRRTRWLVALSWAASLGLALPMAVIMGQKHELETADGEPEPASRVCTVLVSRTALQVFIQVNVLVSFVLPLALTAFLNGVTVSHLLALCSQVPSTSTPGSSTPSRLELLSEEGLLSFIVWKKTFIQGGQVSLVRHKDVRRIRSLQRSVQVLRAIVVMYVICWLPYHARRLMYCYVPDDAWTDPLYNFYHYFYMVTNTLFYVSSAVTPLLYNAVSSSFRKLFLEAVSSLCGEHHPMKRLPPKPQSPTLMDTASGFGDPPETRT

Ca(2+) influx [1]: specifically evoked Ca(2+) influx
SMILES: NCCC(=O)O [Beta-alanine, beta-alanine]
forskolin-stimulated cAMP production [2]: decreases forskolin-stimulated cAMP production

receptor activation [3]: Activated
SMILES: CCN(CC)CCCC(C)Nc1ccnc2cc(Cl)ccc12 (stereo not shown) [chloroquine]

affinity for the receptor [4]: high affinity
SMILES: C[C@@H]1CN([C@H]2CC[C@](C#N)(c3ccc(F)cc3)CC2)CC[C@]1(C(=O)O)c1ccccc1 [levocabastine]
